Values after ≈ are worked out from the molar mass of the structure shown. “Also recorded” adds a separate entry of the source. Where two headings read alike, the source gives them in different places.
Experiments:
ColG-CU = ColG-CU (Hathewaya histolytica, UniProt Q9X721); assay: biochemical; assay type: biochemical, C. histolyticum; details: read-out: Percent inhibition of ColG-CU
ColH-PD = ColH-PD (Hathewaya histolytica, UniProt Q46085); assay: biochemical; assay type: biochemical, C. histolyticum; details: read-out: Percent inhibition of ColH-PD
ColH-PD, sequence (Q46085 331-721 limits assumed): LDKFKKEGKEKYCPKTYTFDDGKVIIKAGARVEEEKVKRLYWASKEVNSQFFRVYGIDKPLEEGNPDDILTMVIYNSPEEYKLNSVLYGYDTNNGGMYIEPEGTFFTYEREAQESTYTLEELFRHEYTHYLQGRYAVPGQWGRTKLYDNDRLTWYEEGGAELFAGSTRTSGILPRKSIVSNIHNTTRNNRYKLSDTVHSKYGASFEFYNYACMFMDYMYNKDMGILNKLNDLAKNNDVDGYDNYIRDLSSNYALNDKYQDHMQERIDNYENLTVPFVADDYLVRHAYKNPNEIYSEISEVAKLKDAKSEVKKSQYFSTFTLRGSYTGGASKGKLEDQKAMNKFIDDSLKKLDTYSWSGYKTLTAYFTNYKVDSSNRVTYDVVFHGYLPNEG

TACE (ADAM-17) = TACE (ADAM-17) (Homo sapiens, UniProt P78536); assay: Human off-target inhibition, TACE; assay type: biochemical
TACE (ADAM-17), sequence (P78536 215-824): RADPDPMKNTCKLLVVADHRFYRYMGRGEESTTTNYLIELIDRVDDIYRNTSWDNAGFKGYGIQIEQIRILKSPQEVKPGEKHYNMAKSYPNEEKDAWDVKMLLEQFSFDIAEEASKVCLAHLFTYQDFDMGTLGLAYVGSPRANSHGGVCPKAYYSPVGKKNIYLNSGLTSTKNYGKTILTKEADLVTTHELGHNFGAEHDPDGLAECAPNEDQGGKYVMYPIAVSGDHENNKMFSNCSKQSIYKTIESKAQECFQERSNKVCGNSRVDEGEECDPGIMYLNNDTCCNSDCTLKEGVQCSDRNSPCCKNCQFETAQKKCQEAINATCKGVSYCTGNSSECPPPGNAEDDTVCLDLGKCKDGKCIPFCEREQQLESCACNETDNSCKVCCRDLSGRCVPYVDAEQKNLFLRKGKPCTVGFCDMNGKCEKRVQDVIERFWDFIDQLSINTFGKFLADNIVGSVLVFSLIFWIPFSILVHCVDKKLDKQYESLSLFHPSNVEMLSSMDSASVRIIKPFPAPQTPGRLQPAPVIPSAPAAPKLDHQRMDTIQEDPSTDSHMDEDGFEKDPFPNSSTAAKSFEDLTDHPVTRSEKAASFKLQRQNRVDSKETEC
Description: (§1) To assess the selectivity of the compounds over human MMPs and on other bacterial collagenases, selected compounds were tested against ColG-CU and ColH-PD from C. histolyticum and ColA-CU from B. cereus strain ATCC14579. In addition, the compounds were tested on catalytic domains of three human MMPs, which are characterized by different depths of the S1′ binding pocket (MMP-1 (shallow), −2 (intermediate), and −3 (deep)). They were also tested against other important human off-targets, which are involved in gene expression and the processing of TNF-α; these include HDAC-3, -8, TACE (ADAM-17),[33],[34] and COX-1.

MMP-1 = target: T1, MMP-1 (Homo sapiens, UniProt P03956); assay: MMP inhibition assay, MMP-1; assay type: biochemical
T1 construct: catalytic domains of three human MMPs; purchased Sigma-Aldrich
T1 sequence (P03956 98-276 limits assumed): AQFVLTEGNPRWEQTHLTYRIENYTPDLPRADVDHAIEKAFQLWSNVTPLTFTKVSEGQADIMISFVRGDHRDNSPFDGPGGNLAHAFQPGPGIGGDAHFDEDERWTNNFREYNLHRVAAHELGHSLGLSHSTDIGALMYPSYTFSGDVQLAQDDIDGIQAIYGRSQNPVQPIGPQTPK
Description: as §1
(§2) The MMP inhibition assay (Sigma-Aldrich, Saint Louise, MO) was performed as previously reported and in accordance with the manufacturer’s instructions. The fluorescence signals were measured in a CLARIOstar plate reader (BMG LABTECH, Ortenberg, Germany) at a concentration of 100 μM.

HDAC-3 = HDAC-3 (Homo sapiens, UniProt O15379); assay: Human off-target inhibition, HDAC-3; assay type: biochemical
HDAC-3, sequence (O15379 whole entry): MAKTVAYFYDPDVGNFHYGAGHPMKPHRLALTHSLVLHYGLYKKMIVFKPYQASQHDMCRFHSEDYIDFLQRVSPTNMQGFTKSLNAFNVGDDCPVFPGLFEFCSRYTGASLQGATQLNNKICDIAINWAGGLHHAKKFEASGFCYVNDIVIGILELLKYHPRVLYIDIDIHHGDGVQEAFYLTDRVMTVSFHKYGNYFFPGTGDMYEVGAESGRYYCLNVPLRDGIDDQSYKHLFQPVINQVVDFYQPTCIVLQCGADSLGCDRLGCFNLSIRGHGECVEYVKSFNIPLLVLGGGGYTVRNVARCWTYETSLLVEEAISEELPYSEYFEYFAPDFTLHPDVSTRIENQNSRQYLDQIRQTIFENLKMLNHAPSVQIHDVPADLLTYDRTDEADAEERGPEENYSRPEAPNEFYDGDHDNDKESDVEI
HDAC-3, sequence (Q9Y618 395-489 partner limits assumed): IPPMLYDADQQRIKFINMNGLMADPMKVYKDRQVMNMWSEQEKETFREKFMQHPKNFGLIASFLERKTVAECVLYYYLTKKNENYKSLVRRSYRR
Description: as §1

ColQ1-CU = ColQ1-CU (Bacillus cereus, UniProt B9J3S4); assay: biochemical; parameters: species or system B. cereus strain Q1
ColQ1-CU, sequence (B9J3S4 94-765 limits assumed): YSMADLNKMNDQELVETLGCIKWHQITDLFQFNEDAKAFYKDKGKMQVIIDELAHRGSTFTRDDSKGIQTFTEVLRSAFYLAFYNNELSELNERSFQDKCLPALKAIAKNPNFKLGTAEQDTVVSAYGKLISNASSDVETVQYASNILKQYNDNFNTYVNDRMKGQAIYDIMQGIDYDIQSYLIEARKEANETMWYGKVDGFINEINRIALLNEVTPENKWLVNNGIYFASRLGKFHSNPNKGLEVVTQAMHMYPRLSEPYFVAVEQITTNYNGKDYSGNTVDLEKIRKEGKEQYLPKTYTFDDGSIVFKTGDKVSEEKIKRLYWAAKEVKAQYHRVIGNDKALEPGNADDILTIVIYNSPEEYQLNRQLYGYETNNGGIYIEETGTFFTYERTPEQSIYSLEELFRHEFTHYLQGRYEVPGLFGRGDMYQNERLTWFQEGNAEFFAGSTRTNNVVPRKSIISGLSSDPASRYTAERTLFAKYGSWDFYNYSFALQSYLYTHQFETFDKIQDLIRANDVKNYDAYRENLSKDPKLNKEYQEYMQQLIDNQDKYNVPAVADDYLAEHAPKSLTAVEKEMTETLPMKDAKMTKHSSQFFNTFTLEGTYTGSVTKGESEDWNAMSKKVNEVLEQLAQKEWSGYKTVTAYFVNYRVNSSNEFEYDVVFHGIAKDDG

MMP-3 = target: T2, MMP-3 (Homo sapiens, UniProt P08254); assay: MMP inhibition assay, MMP-3; assay type: biochemical
T2 construct: catalytic domains of three human MMPs; purchased Sigma-Aldrich
T2 sequence (P08254 100-272 limits assumed): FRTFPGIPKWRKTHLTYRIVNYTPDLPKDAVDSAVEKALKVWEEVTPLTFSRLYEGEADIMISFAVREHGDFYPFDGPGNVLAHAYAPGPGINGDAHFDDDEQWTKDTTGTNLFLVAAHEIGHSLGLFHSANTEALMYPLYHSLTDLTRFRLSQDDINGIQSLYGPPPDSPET
Description: as §1, §2

HDAC-8 = target: T3, HDAC-8 (Homo sapiens, UniProt Q9BY41); assay: Human off-target inhibition, HDAC-8; assay type: biochemical
T3 sequence (Q9BY41 1-377): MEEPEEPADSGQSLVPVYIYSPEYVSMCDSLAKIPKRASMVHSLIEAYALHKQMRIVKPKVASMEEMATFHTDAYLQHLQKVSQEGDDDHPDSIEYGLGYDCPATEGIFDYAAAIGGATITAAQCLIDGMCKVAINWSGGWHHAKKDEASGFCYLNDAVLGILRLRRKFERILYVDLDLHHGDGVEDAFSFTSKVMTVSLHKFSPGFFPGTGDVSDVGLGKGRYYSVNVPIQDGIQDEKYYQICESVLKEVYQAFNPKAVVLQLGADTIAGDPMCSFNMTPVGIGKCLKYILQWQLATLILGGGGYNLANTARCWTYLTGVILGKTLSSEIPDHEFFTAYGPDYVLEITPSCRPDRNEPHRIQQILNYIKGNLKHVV
Description: as §1

MMP-2 = target: T4, MMP-2 (Homo sapiens, UniProt P08253); assay: MMP inhibition assay, MMP-2; assay type: biochemical
T4 construct: catalytic domains of three human MMPs; purchased Sigma-Aldrich
T4 sequence (P08253 110-444 limits assumed): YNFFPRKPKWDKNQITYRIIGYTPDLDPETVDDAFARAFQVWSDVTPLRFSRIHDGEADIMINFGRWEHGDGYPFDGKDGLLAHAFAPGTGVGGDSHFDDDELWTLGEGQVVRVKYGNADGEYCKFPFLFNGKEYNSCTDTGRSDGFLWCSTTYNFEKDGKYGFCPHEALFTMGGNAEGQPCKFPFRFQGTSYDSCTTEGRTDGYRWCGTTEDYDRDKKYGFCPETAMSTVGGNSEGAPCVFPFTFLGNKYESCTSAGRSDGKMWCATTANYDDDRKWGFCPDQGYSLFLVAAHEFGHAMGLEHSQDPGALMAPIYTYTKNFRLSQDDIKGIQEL
Description: as §1, §2

B. cereus AH187 = assay: B. cereus growth inhibition assay; assay type: cell-based; details: Bacillus cereus, read-out: MIC50 (µM) AH187
[1] = system: B. cereus AH187 infection; assay type: in vivo, Galleria mellonella; details: in vivo
ColA-CU = ColA-CU (Bacillus cereus, UniProt Q81BJ6); assay: biochemical; assay type: biochemical, B. cereus strain ATCC14579; details: read-out: Percent inhibition of ColA-CU
ColA-CU, sequence (Q81BJ6 93-764): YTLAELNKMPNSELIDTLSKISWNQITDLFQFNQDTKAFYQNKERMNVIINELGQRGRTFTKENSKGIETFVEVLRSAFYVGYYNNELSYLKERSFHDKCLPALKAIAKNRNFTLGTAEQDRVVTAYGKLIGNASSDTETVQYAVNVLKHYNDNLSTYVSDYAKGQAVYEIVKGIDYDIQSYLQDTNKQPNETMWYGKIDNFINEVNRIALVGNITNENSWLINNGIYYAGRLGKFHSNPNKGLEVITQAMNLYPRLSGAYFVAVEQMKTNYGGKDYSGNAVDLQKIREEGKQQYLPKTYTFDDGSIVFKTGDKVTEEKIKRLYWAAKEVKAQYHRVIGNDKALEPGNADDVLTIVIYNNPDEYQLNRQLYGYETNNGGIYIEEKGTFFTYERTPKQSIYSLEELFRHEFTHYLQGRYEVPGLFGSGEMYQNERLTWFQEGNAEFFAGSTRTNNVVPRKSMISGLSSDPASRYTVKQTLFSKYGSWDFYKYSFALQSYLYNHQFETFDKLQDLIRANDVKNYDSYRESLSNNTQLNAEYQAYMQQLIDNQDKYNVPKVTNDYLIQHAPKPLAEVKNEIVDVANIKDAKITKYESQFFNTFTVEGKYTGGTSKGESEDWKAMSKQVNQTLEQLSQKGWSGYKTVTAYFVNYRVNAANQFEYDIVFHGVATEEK

[2] = system: B. cereus collagenases released in the NHDF infection model; assay type: cell-based, B. cereus AH187
[3] = system: NHDF cells infected with B. cereus; assay: NHDF infection model, cell morphology/attachment and fibrillar collagen (picrosirius red); assay type: cell-based, human; details: B. cereus infection, 5 h
ColQ1-FL = ColQ1-FL (Bacillus cereus, UniProt B9J3S4); assay type: biochemical; details: 12.5–1.5 μM tested, SDS-PAGE
ColQ1-FL, sequence (B9J3S4 94-965 limits assumed): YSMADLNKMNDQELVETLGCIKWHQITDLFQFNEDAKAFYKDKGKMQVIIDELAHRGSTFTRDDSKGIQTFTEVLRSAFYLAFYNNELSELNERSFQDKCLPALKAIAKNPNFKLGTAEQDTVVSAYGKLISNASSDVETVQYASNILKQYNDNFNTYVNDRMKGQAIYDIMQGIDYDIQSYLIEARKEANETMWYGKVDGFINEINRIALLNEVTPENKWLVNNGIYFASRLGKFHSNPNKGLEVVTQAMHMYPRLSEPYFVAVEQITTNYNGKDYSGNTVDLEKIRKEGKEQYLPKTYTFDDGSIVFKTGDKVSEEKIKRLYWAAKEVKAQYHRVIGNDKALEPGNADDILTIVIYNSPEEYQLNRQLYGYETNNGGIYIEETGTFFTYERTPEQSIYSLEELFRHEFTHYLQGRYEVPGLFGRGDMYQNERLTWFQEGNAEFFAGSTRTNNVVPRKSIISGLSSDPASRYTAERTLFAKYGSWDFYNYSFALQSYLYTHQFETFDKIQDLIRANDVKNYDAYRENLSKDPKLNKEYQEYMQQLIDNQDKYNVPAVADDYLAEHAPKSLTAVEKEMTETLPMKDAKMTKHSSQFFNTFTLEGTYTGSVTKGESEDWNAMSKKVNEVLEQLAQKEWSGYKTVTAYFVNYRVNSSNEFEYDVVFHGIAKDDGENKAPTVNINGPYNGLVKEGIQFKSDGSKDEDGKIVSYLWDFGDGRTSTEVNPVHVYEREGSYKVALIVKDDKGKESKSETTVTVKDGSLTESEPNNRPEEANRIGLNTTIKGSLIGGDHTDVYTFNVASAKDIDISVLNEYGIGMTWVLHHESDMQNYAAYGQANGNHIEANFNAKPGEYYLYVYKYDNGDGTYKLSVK

ColG-CU, sequence (Q9X721 111-786): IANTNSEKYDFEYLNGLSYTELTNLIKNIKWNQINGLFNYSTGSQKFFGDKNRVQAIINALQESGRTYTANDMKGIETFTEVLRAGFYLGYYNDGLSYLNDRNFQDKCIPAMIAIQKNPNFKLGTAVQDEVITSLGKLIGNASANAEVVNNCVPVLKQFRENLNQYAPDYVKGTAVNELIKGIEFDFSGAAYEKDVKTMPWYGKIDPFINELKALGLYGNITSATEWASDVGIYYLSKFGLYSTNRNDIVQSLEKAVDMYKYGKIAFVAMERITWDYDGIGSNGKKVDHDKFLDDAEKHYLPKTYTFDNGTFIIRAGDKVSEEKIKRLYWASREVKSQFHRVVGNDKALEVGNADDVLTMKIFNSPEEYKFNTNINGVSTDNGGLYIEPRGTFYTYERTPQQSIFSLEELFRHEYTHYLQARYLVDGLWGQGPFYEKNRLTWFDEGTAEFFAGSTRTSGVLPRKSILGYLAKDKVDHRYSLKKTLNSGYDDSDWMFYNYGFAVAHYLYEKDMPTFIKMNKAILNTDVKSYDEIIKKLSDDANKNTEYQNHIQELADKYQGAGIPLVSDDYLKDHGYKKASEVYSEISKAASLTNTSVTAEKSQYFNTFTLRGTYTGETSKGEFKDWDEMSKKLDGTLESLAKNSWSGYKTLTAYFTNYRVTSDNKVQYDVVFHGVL

| SMILES | inhibition at 100 µM (ColQ1-CU) [%] | IC50 (ColQ1-CU) [µM] | Inhibitory effect on gelatinolytic activity of secreted collagenases [2] | Protection of Col I chains from cleavage by ColQ1-FL (ColQ1-FL) | also measured |
| --- | --- | --- | --- | --- | --- |
| NCCCC(O)(P(=O)([O-])O)P(=O)(O)O.[Na+] [Alendronate sodium, reference compound] | 76 ± 1 | – | – | – | inhibition at 100 µM (ColG-CU): 28 ± 7%; inhibition at 100 µM (ColH-PD): 25 ± 5%; IC50 (TACE (ADAM-17)): > 100 µM; IC50 (MMP-1): > 100 µM; IC50 (HDAC-3): > 100 µM; IC50 (MMP-3): > 100 µM; IC50 (HDAC-8): > 100 µM; IC50 (MMP-2): > 100 µM; MIC50 (B. cereus AH187; AH187, 48 h): 200 µM; Increase in survival of infected larvae [1]: 40%; Survival of infected larvae vs control without inhibitor [1]: ameliorated the survival of the larvae in a dose-dependent manner; inhibition at 100 µM (ColA-CU): 18 ± 4% |
| O=P(O)(O)C(Cl)(Cl)P(=O)(O)O [Clodronate disodium, reference compound] | < 5 | – | – | – | – |
| O=P(O)(O)c1nc2ccccc2nc1P(=O)(O)O [Compound 7, Quinoxaline-2,3-diylbis(phosphonic acid)] | 40 ± 7 | – | – | – | – |
| CCOP(=O)(OCC)c1nc2ccccc2nc1P(=O)(OCC)OCC [Compound 7c, Tetraethyl Quinoxaline-2,3-diylbis(phosphonate)] | < 5 | – | – | – | Inhibition (%) (ColQ1-CU; 100 μM): 7c; O=P(OCC)(OCC)C2=NC1=CC=CC=C1N=C2P(OCC)(OCC)=O; 3 ± 2% |
| O=P(O)(O)c1nc2ccc(F)cc2nc1P(=O)(O)O [Compound 8, (6-Fluoroquinoxaline-2,3-diyl)bis(phosphonic acid)] | – | – | – | – | Inhibition (%) (ColQ1-CU; 100 μM): 8; O=P(O)(O)C2=NC1=CC(F)=CC=C1N=C2P(O)(O)=O; 38 ± 3% |
| O=P(O)(O)c1nc2ccc(Cl)cc2nc1P(=O)(O)O [Compound 9, (6-Chloroquinoxaline-2,3-diyl)bis(phosphonic acid)] | – | 4 ± 0.6 | – | – | – |
| Cc1ccc2nc(P(=O)(O)O)c(P(=O)(O)O)nc2c1 [Compound 11, (6-Methylquinoxaline-2,3-diyl)bis(phosphonic acid)] | 58 | 3.4 ± 0.1 | inhibited the collagenase activity toward gelatin only marginally at 100 μM | inhibited the collagenase activity at all concentrations tested | Effect on cell morphology and ECM collagen content of infected NHDF cells [3]: smaller effect at all concentrations tested; MIC50 (B. cereus AH187; AH187, BHI medium, 37 °C, 48 h, 200–3 μM): 200 µM (≈ 60.8 µg/mL) |
| CCOP(=O)(OCC)c1nc2ccc(C)cc2nc1P(=O)(OCC)OCC [Compound 11c, tetraethyl (6-methylquinoxaline-2,3-diyl)bis(phosphonate)] | < 5 | – | – | – | Inhibition (%) (ColQ1-CU; 100 μM): 11c; O=P(OCC)(OCC)C2=NC1=CC(C)=CC=C1N=C2P(OCC)(OCC)=O; 8 ± 4% |
| COc1ccc2nc(P(=O)(O)O)c(P(=O)(O)O)nc2c1 [Compound 12, (6-Methoxyquinoxaline-2,3-diyl)bis(phosphonic acid)] | 23 ± 6 | – | – | – | – |
| CCOP(=O)(OCC)c1nc2ccc(OC)cc2nc1P(=O)(OCC)OCC [Compound 12c, tetraethyl (6-methoxyquinoxaline-2,3-diyl)bis(phosphonate)] | – | – | – | – | % Inhibition (ColQ1-CU; 100 μM): n.i. (key: n.i.: no inhibition (percent inhibition < 5%)); Inhibition (%) (ColQ1-CU; 100 μM): 12c; O=P(OCC)(OCC)C2=NC1=CC(OC)=CC=C1N=C2P(OCC)(OCC)=O; 0 ± 2% |
| O=c1[nH]c2cc(Cl)c(Cl)cc2nc1P(=O)(O)O [Compound 16, (6,7-Dichloro-3-oxo-3,4-dihydroquinoxalin-2-yl)phosphonic Acid] | < 5 | – | – | severe degradation was visible at all tested concentrations | Inhibition (%) (ColQ1-CU; 100 μM): 16; O=P(O)(O)C2=NC1=CC(Cl)=C(Cl)C=C1NC2=O; 5 ± 2% |
| CC(=O)Nc1cccc(OCc2cn(CCNC(=O)C(CC(C)C)C(=O)NO)nn2)c1 (stereo not shown) [Compound 28, N-[2-[4-[(3-Acetamidophenoxy)methyl]triazol-1-yl]ethyl]-2-(hydroxycarbamoyl)-4-methyl-pentanamide] | – | 35 ± 1 | no inhibitory effect on the collagenase in the zymography at all tested concentrations; also recorded: no inhibition of the collagenase in the gelatin zymography was detected | severe degradation was visible at all tested concentrations | Effect on cell morphology and ECM collagen content of infected NHDF cells [3]: neither able to rescue cell morphology nor able to maintain the collagen content of the ECM |
| CC(=O)Nc1ccc(OCc2cn(CCNC(=O)C(CC(C)C)C(=O)NO)nn2)cc1 (stereo not shown) [Compound 29, N-[2-[4-[(4-Acetamidophenoxy)methyl]triazol-1-yl]ethyl]-2-(hydroxycarbamoyl)-4-methyl-pentanamide] | – | 35 ± 3 | no inhibitory effect on the collagenase in the zymography at all tested concentrations; also recorded: no inhibition of the collagenase in the gelatin zymography was detected | severe degradation was visible at all tested concentrations | Effect on cell morphology and ECM collagen content of infected NHDF cells [3]: neither able to rescue cell morphology nor able to maintain the collagen content of the ECM |
| CC(C)CC(C(=O)NO)C(=O)NCCn1cc(COc2ccccc2F)nn1 (stereo not shown) [Compound 30, N-[2-[4-[(2-Fluorophenoxy)methyl]triazol-1-yl]ethyl]-2-(hydroxycarbamoyl)-4-methyl-pentanamide] | 92 | 16.2 ± 0.8 | no inhibitory effect on the collagenase in the zymography at all tested concentrations | – | – |
| CC(C)CC(C(=O)NO)C(=O)NCCn1cc(COc2ccccc2)nn1 (stereo not shown) [Compound 31, 2-(Hydroxycarbamoyl)-4-methyl-N-[2-[4-(phenoxymethyl)triazol-1-yl]ethyl]pentanamide] | – | 12 ± 1 | no inhibitory effect on the collagenase in the zymography at all tested concentrations; also recorded: no inhibition of the collagenase in the gelatin zymography was detected | severe degradation was visible at all tested concentrations | Effect on cell morphology and ECM collagen content of infected NHDF cells [3]: neither able to rescue cell morphology nor able to maintain the collagen content of the ECM |
| CC(C)CC(C(=O)NO)C(=O)NCCn1cc(CSc2ccccc2)nn1 (stereo not shown) [Compound 32, 2-(Hydroxycarbamoyl)-4-methyl-N-[2-[4-(phenylsulfanylmethyl)triazol-1 yl]ethyl]pentanamide] | – | 10.1 ± 0.9 | no inhibitory effect on the collagenase in the zymography at all tested concentrations; also recorded: no inhibition of the collagenase in the gelatin zymography was detected | severe degradation was visible at all tested concentrations | Effect on cell morphology and ECM collagen content of infected NHDF cells [3]: neither able to rescue cell morphology nor able to maintain the collagen content of the ECM |
| CCCCCN(C)CCC(O)(P(=O)(O)O)P(=O)(O)O [Ibandronate sodium, reference compound] | < 5 | – | – | – | – |
| NCCCCCC(O)(P(=O)(O)O)P(=O)(O)O [Neridronate, reference compound] | < 5 | – | – | – | – |
| O=P(O)(O)C(O)(Cc1cccnc1)P(=O)(O)O [Risedronate sodium, reference compound] | < 5 | – | – | – | – |

From PMC9574867, “Discovery and Characterization of Synthesized and FDA-Approved Inhibitors of Clostridial and Bacillary Collagenases” (Journal of Medicinal Chemistry, 2022)
